Consider 14 molecules from patent publication US7968548B2, “Melanocortin receptor-specific piperazine compounds with diamine groups” (Palatin Technologies, Inc., priority 2005, dated 2011).

Several values for one entry are separate records, joined by “and”; a condition that tells them apart may be missing. Identical values can stand only once.

Usually inhibition stands for how much of the control response was suppressed. As a reminder, the Ki is a measure of affinity in units of concentration, obtained from inhibition or displacement.

In one test the target is T1, hMC1-R (Homo sapiens, UniProt Q01726).
T1 construct: expressed in transfected cells; host or cells: HEK-293
Description: Competitive inhibition binding assay using [I125]-NDP-α-MSH, HEK-293 membranes, recombinant hMC1-R. To be noted: human recombinant MC1-R; for inhibition at 1 µM: 1 μM compound. How it is done:
(§1) A competitive inhibition binding assay was performed using membrane homogenates prepared from HEK-293 cells that express recombinant hMC4-R, hMC3-R, or hMC5-R, and from B-16 mouse melanoma cells (containing endogenous MC1-R). In some instances, HEK-293 cells that express recombinant hMC1-R were employed. In the examples that follow, all MC3-R, MC4-R and MC5-R values are for human recombinant receptors. MC1-R values are for B-16 mouse melanoma cells, unless the heading is “hMC1-R”, in which case the value is for human recombinant MC1-R. Assays were performed in 96 well GF/B Millipore multiscreen filtration plates (MAFB NOB10) pre-coated with 0.5% bovine serum albumin (Fraction V). […] After incubation for 60 minutes at 37° C., the assay mixture was filtered and the membranes washed three times with ice-cold buffer. Filters were dried and counted in a gamma counter for bound radioactivity. […] Maximal specific binding (100%) was defined as the difference in radioactivity (cpm) bound to cell membranes in the absence and presence of 1 μM NDP-α-MSH. […] Each assay was conducted in triplicate and the actual mean values are described, with results less than 0% reported as 0%. Ki values for test compounds were determined using Graph-Pad Prism® curve-fitting software.

In another test the target is T2, MC5-R (Homo sapiens, UniProt P33032).
T2 construct: expressed in transfected cells; host or cells: HEK-293
Description: Competitive inhibition binding assay using [I125]-NDP-α-MSH, HEK-293 membranes, recombinant hMC5-R. To be noted: for inhibition at 1 µM: 1 μM compound. How it is done: as §1

The target of a further test is T3, MC3-R (Homo sapiens, UniProt P41968).
T3 construct: expressed in transfected cells; host or cells: HEK-293
Briefly: Competitive inhibition binding assay using [I125]-NDP-α-MSH, HEK-293 membranes, recombinant hMC3-R. The following applies: for inhibition at 1 µM: 1 μM compound. How it is done: as §1

In another test the target is MC4-R (Homo sapiens, UniProt P32245). Description: Competitive inhibition binding assay using [I125]-NDP-α-MSH, HEK-293 membranes, recombinant hMC4-R. Details: expressed in transfected cells; host or cells: HEK-293. To be noted: for inhibition at 1 µM: 1 μM compound. How it is done: as §1
MC4-R, sequence (P32245 whole entry): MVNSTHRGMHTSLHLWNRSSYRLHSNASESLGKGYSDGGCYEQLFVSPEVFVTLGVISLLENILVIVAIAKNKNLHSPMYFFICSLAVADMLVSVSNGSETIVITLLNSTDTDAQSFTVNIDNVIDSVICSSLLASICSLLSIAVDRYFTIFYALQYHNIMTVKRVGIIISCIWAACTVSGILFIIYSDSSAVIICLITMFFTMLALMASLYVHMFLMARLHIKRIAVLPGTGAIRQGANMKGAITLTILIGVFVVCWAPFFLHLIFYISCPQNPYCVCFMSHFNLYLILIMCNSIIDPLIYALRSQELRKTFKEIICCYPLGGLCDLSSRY

T3 sequence (P41968 whole entry): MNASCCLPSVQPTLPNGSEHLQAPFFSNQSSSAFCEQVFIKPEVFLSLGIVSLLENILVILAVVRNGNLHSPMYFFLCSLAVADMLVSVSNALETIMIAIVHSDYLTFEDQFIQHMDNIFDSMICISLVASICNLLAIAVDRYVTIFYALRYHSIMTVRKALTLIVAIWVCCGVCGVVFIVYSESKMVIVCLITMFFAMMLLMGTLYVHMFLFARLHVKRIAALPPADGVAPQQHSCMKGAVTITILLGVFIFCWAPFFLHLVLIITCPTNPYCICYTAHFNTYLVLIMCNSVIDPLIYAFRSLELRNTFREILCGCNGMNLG
T2 sequence (P33032 whole entry): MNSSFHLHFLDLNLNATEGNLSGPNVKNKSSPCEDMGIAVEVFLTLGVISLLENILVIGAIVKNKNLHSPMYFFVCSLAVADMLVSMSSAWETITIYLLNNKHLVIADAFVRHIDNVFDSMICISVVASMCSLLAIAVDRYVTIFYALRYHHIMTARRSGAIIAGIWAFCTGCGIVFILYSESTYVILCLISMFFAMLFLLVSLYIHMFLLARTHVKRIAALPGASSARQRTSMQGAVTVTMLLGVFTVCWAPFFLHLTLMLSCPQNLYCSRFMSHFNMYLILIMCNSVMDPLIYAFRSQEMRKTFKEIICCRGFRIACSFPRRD
T1 sequence (Q01726 whole entry): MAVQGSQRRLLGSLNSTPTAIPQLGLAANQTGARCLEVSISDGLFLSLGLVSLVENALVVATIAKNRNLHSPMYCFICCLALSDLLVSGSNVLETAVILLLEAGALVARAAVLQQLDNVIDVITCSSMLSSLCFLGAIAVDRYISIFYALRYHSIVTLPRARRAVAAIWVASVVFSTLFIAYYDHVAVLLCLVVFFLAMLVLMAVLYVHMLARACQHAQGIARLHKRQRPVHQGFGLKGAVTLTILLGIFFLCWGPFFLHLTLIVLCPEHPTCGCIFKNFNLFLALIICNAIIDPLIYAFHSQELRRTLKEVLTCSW

Regarding `CC(C)C[C@@H]1CN(C[C@@H](Cc2ccc(Cl)cc2Cl)N(C)C)[C@@H](CCCN(C)CCN)CN1C(=O)Cc1ccc2ccccc2c1` [Example 32, 1-{(2R,5S)-5-{3-[(2-Amino-ethyl)-methyl-amino]-propyl}-4-[(R)-3-(2,4-dichloro-phenyl)-2-dimethylamino-propyl]-2-isobutyl-piperazin-1-yl}-2-naphthalen-2-yl-ethanone], the inhibition at 1 µM at hMC1-R is 25%; at MC5-R, 65%; on MC3-R, 43%; on MC4-R, 91%.

With `C[C@@H]1CN(C(=O)[C@H](N)Cc2ccc(Cl)c(Cl)c2)[C@@H](CCCNCCN)CN1C(=O)[C@H](N)Cc1ccc(Cl)c(Cl)c1` [Example 28, (R)-2-Amino-1-{(2R,5S)-4-[(R)-2-amino-3-(3,4-dichloro-phenyl)-propionyl]-5-[3-(2-amino-ethylamino)-propyl]-2-methyl-piperazin-1-yl}-3-(3,4-dichloro-phenyl)-propan-1-one], the inhibition at 1 µM at hMC1-R was 77%; on MC5-R, 84%; on MC3-R, 94%; at MC4-R, 96%. Also, on MC4-R, the Ki came to 19 nM.

For the molecule `NCCNCCC[C@H]1CN(C(=O)[C@H](N)Cc2ccc(Cl)cc2Cl)[C@H](CC2CCCCC2)CN1C(=O)[C@H](N)Cc1ccc(Cl)cc1Cl` [Example 15, (R)-2-Amino-1-{(2R,5S)-4-[(R)-2-amino-3-(2,4-dichloro-phenyl)-propionyl]-5-[3-(2-amino-ethylamino)-propyl]-2-cyclohexylmethyl-piperazin-1-yl}-3-(2,4-dichloro-phenyl)-propan-1-one], the inhibition at 1 µM was 27% on hMC1-R, 31% at MC5-R, 36% on MC3-R and 83% on MC4-R. On MC4-R, the Ki was determined as 74 nM.

`Cc1ccc(C[C@@H](N)CN2C[C@@H](C)N(C(=O)Cc3ccc4ccccc4c3)C[C@@H]2Cc2ccc(NCCN)cc2)c(C)c1` [Example 11, 1-{(2R,5S)-4-[(R)-2-Amino-3-(2,4-dimethyl-phenyl)-propyl]-5-[4-(2-amino-ethylamino)-benzyl]-2-methyl-piperazin-1-yl}-2-naphthalen-2-yl-ethanone]: the inhibition at 1 µM on hMC1-R is 3%; on MC5-R, 36%; on MC3-R, 29%; at MC4-R, 39%.

On to `C[C@@H]1CN(C(=O)[C@H](N)Cc2ccc(Cl)cc2Cl)[C@@H](CCCNCCN)CN1C(=O)[C@H](N)Cc1ccc(Cl)cc1Cl` [Example 25, (R)-2-Amino-1-{(2R,5S)-4-[(R)-2-amino-3-(2,4-dichloro-phenyl)-propionyl]-5-[3-(2-amino-ethylamino)-propyl]-2-methyl-piperazin-1-yl}-3-(2,4-dichloro-phenyl)-propan-1-one], for which the inhibition at 1 µM at hMC1-R came to 67%; at MC5-R, 93%; on MC3-R, 89%; at MC4-R it was 98%. Besides, on MC4-R, the Ki turned out to be 41 nM.

For the molecule `CC(C)C[C@@H]1CN(C[C@H](N)Cc2ccc(Cl)cc2Cl)[C@@H](CCCNCCCN)CN1C(=O)Cc1ccc2ccccc2c1` [Example 29, 1-{(2R,5S)-4-[(R)-2-Amino-3-(2,4-dichloro-phenyl)-propyl]-5-[3-(3-amino-propylamino)-propyl]-2-isobutyl-piperazin-1-yl}-2-naphthalen-2-yl-ethanone], the inhibition at 1 µM at hMC1-R worked out at 33%; at MC5-R, 84%; on MC3-R, 65%; on MC4-R it was 91%.

Consider `Cc1ccc(C[C@@H](N)C(=O)N2C[C@H](CCCNCCN)N(C(=O)[C@H](N)Cc3ccc(C)cc3C)C[C@H]2CC(C)C)c(C)c1` [Example 17, (R)-2-Amino-1-{(2S,5R)-4-[(R)-2-amino-3-(2,4-dimethyl-phenyl)-propionyl]-2-[3-(2-amino-ethylamino)-propyl]-5-isobutyl-piperazin-1-yl}-3-(2,4-dimethyl-phenyl)-propan-1-one], for which the inhibition at 1 µM at hMC1-R came to 22%; at MC5-R, 38%; on MC3-R it was 14%; at MC4-R, 83%. In addition, the Ki at MC4-R worked out at 60 nM.

For the molecule `Cc1ccc(C[C@@H](N)C(=O)N2C[C@H](CCCNCCN)N(C(=O)[C@H](N)Cc3ccc(C)cc3C)C[C@H]2CC2CCCCC2)c(C)c1` [Example 14, (R)-2-Amino-1-{(2R,5S)-4-[(R)-2-amino-3-(2,4-dimethyl-phenyl)-propionyl]-5-[3-(2-amino-ethylamino)-propyl]-2-cyclohexylmethyl-piperazin-1-yl}-3-(2,4-dimethyl-phenyl)-propan-1-one], the inhibition at 1 µM at hMC1-R was determined as 35%; at MC5-R, 43%; at MC3-R, 22%; on MC4-R it was 83%. Further, the Ki on MC4-R came out at 81 nM.

`NCCNCCCC[C@H]1CN(C(=O)[C@H](N)Cc2ccc(Cl)cc2Cl)[C@H](CC2CCCCC2)CN1C(=O)[C@H](N)Cc1ccc(Cl)cc1Cl` [Example 24, (R)-2-Amino-1-{(2R,5S)-4-[(R)-2-amino-3-(2,4-dichloro-phenyl)-propionyl]-5-[4-(2-amino-ethylamino)-butyl]-2-cyclohexylmethyl-piperazin-1-yl}-3-(2,4-dichloro-phenyl)-propan-1-one]: the inhibitory constant (Ki) at hMC1-R was found to be 270 nM; at MC5-R it was 139 nM; at MC3-R, 443 nM; on MC4-R, 17 nM.

As to `C[C@@H]1CN(C(=O)[C@H](N)Cc2ccc3ccccc3c2)[C@@H](CCCNCCN)CN1C(=O)[C@H](N)Cc1ccc2ccccc2c1` [Example 27, (R)-2-Amino-1-[(2R,5S)-5-[3-(2-amino-ethylamino)-propyl]-4-((R)-2-amino-3-naphthalen-2-yl-propionyl)-2-methyl-piperazin-1-yl]-3-naphthalen-2-yl-propan-1-one], the inhibition at 1 µM at hMC1-R is 62%; on MC5-R, 73%; at MC3-R it was 79%; on MC4-R, 93%. For the same molecule, at MC4-R, the Ki worked out at 42 nM.

`CC(C)C[C@@H]1CN(C[C@H](N)Cc2ccc(Cl)cc2Cl)[C@@H](CCCNCCCCN)CN1C(=O)Cc1ccc2ccccc2c1` [Example 30, 1-{(2R,5S)-5-[3-(4-Amino-butylamino)-propyl]-4-[(R)-2-amino-3-(2,4-dichloro-phenyl)-propyl]-2-isobutyl-piperazin-1-yl}-2-naphthalen-2-yl-ethanone]: the inhibition at 1 µM at hMC1-R amounted to 37%; on MC5-R, 84%; on MC3-R, 65%; at MC4-R it was 91%.

For `CC(C)C[C@@H]1CN(C(=O)[C@H](N)Cc2ccc(Cl)cc2Cl)[C@@H](CCCCNCCN)CN1C(=O)[C@H](N)Cc1ccc(Cl)cc1Cl` [Example 19, (R)-2-Amino-1-{(2R,5S)-4-[(R)-2-amino-3-(2,4-dichloro-phenyl)-propionyl]-5-[4-(2-amino-ethylamino)-butyl]-2-isobutyl-piperazin-1-yl}-3-(2,4-dichloro-phenyl)-propan-1-one], the inhibition at 1 µM at hMC1-R stood at 36%; at MC5-R, 47%; at MC3-R it was 59%; at MC4-R, 97%. Besides, the inhibition constant Ki at hMC1-R came to 754 nM; on MC5-R, 296 nM; on MC3-R, 327 nM; at MC4-R, 36 nM.

For the molecule `Cc1ccc(C[C@@H](N)C(=O)N2C[C@H](CCCCNCCN)N(C(=O)[C@H](N)Cc3ccc(C)cc3C)C[C@H]2CC(C)C)c(C)c1` [Example 21, (R)-2-Amino-1-{(2R,5S)-4-[(R)-2-amino-3-(2,4-dimethyl-phenyl)-propionyl]-5[4-(2-amino-ethylamino)-butyl]-2-isobutyl-piperazin-1-yl}-3-(2,4-dimethyl-phenyl)-propan-1-one], the inhibition at 1 µM was found to be 39% on hMC1-R, 51% at MC5-R, 55% on MC3-R and 95% at MC4-R. In addition, the Ki worked out at 567 nM at hMC1-R, 450 nM on MC5-R, 1050 nM on MC3-R and 83 nM on MC4-R.

Consider `NCCNCCC[C@H]1CN(C(=O)[C@H](N)Cc2ccc3ccccc3c2)[C@H](CC2CCCCC2)CN1C(=O)[C@H](N)Cc1ccc2ccccc2c1` [Example 16, (R)-2-Amino-1-[(2R,5S)-5-[3-(2-amino-ethylamino)-propyl]-4-((R)-2-amino-3-naphthalen-2-yl-propionyl)-2-cyclohexylmethyl-piperazin-1-yl]-3-naphthalen-2-yl-propan-1-one], for which the inhibition constant Ki at hMC1-R was 22 nM; at MC5-R, 30 nM; on MC3-R, 36 nM; at MC4-R it was 99 nM and 81 nM.
